One assay concerns the target T1, Bile acid receptor (Homo sapiens, UniProt Q96RI1).
T1 sequence (Q96RI1 whole entry): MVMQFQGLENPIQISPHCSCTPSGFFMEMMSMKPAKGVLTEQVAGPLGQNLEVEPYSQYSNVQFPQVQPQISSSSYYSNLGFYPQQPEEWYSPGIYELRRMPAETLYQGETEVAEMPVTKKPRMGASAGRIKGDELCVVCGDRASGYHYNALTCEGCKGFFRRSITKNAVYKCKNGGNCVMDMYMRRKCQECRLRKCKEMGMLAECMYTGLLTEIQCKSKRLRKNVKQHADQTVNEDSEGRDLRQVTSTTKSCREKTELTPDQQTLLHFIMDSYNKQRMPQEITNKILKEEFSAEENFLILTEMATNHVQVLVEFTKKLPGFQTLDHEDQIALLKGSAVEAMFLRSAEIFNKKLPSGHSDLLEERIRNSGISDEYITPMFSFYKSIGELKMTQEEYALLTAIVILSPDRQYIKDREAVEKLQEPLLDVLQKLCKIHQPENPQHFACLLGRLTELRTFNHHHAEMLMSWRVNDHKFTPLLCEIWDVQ
Briefly: (§1) Agonist activity at human farnesoid-X-receptor expressed in HEK293T cells co-expressing human RXRalpha assessed as receptor activation after 20 hrs by dual luciferase reporter assay. It is filed as cell-based, HEK-293T. For orientation: Reporter assays use an easily measured gene product as a stand-in for the process of interest.

Assay [1] has as its target T2, Bile acid receptor (Homo sapiens) (UniProt Q96RI1).
T2 sequence (whole entry): T1 sequence (Q96RI1 whole entry)
Described as §1. In kind it is cell-based. The settings on record: HEK-293T.

Consider `CC(C)(C)OC(=O)/N=C(\NCCCc1cc(C(=O)NCc2ccncc2)no1)NC(=O)OC(C)(C)C`, for which the EC50 on Bile acid receptor amounted to 15.4 µM. Also, the Activity entry in assay [1] is “Dose-dependent effect”.

Take `CC(C)(C)OC(=O)/N=C(/NCCc1cc(NC(=O)Nc2ccncc2)no1)NC(=O)OC(C)(C)C`: the EC50 at Bile acid receptor came to 29.9 µM. Besides, the Activity result in assay [1] is “Dose-dependent effect”.

What is called EC50 is the concentration needed to bring the measured effect to its halfway point.

The record behind these values is ChEMBL document CHEMBL3739375, “Identifying farnesoid X receptor agonists by naive Bayesian and recursive partitioning approaches” (Medchemcomm, 2015).
